US8592174B2, “Peptidase substrates” (bioMérieux, S.A., priority 2009, dated 2013)

Tests used:
Format in all cases: cell-based
[1] = system: Candida albicans ATCC 90 028; experiment: Peptidase detection on Columbia medium (Example 2); parameters: key to Growth: NG: No growth; 0.5: weak growth; 1: moderate growth; 2: good growth; key to Fluo. / Color / Color post-acid.: —: no color; details: 80 mg in 400 ml Columbia; 24 h 37° C.
Method: (§2) The 6 media were distributed into Petri dishes 90 mm in diameter, in a proportion of 20 ml per dish.
(§3) Seventeen strains of microorganisms stemming from collections and belonging to various species of bacteria and yeasts are inoculated in spots of approximately 10 000 colony-forming units.
(§4) The media are incubated for 24 hours at 37° C., and then the colonies formed are examined visually, with or without the addition of acid and under a UV lamp at 365 nm.

[2] = system: Enterococcus faecalis NCTC 775; experiment: Peptidase detection on Columbia medium (Example 2); parameters: key to Growth: NG: No growth; 0.5: weak growth; 1: moderate growth; 2: good growth; key to Fluo. / Color / Color post-acid.: —: no color; details: 80 mg in 400 ml Columbia; 24 h 37° C.
Method: as §2, §3, §4

[3] = system: Staphylococcus aureus NCTC 11 939; experiment: Peptidase detection on Columbia medium (Example 2); parameters: key to Growth: NG: No growth; 0.5: weak growth; 1: moderate growth; 2: good growth; details: 80 mg in 400 ml Columbia; 24 h 37° C.
Method: as §2, §3, §4

[4] = system: Providencia rettgeri NCTC 7 475; experiment: Peptidase detection on Columbia medium (Example 2); parameters: key to Growth: NG: No growth; 0.5: weak growth; 1: moderate growth; 2: good growth; key to Color: —: no color; details: 80 mg in 400 ml Columbia; 24 h 37° C.
Method: as §2, §3, §4

[5] = system: Bacillus subtilis NCTC 9 372; experiment: Peptidase detection on Columbia medium (Example 2); parameters: key to Growth: NG: No growth; 0.5: weak growth; 1: moderate growth; 2: good growth; details: 80 mg in 400 ml Columbia; 24 h 37° C.
Method: as §2, §3, §4

[6] = system: Serratia marcescens NCTC 10 211; experiment: Peptidase detection on Columbia medium (Example 2); parameters: key to Growth: NG: No growth; 0.5: weak growth; 1: moderate growth; 2: good growth; details: 80 mg in 400 ml Columbia; 24 h 37° C.
Method: as §2, §3, §4

[7] = system: Streptococcus pyogenes NCTC 8 306; experiment: Peptidase detection on Columbia medium (Example 2); parameters: key to Fluo. / Color / Color post-acid.: —: no color; details: 80 mg in 400 ml Columbia; 24 h 37° C.
Method: as §2, §3, §4

[8] = system: Staphylococcus epidermidis NCTC 11 047; experiment: Peptidase detection on Columbia medium (Example 2); parameters: key to Fluo. / Color / Color post-acid.: —: no color; details: 80 mg in 400 ml Columbia; 24 h 37° C.
Method: as §2, §3, §4

[9] = system: Enterococcus faecium NCTC 7 171; experiment: Peptidase detection on Columbia medium (Example 2); parameters: key to Growth: NG: No growth; 0.5: weak growth; 1: moderate growth; 2: good growth; key to Fluo. / Color / Color post-acid.: —: no color; details: 80 mg in 400 ml Columbia; 24 h 37° C.
Method: as §2, §3, §4

[10] = system: Pseudomonas aeruginosa NCTC 10 662; experiment: Peptidase detection on Columbia medium (Example 2); parameters: key to Growth: NG: No growth; 0.5: weak growth; 1: moderate growth; 2: good growth; details: 80 mg in 400 ml Columbia; 24 h 37° C.
[11] = system: Staphylococcus aureus NCTC 6 571; experiment: Peptidase detection on Columbia medium (Example 2); parameters: key to Growth: NG: No growth; 0.5: weak growth; 1: moderate growth; 2: good growth; key to Fluo. / Color / Color post-acid.: —: no color; details: 80 mg in 400 ml Columbia; 24 h 37° C.
Method: as §2, §3, §4

[12] = system: Candida glabrata NCPF 3 943; experiment: Peptidase detection on Columbia medium (Example 2); parameters: key to Growth: NG: No growth; 0.5: weak growth; 1: moderate growth; 2: good growth; key to Fluo. / Color / Color post-acid.: —: no color; details: 80 mg in 400 ml Columbia; 24 h 37° C.
Method: as §2, §3, §4

[13] = system: Salmonella typhimurium NCTC 74; experiment: Peptidase detection on Columbia medium (Example 2); parameters: key to Growth: NG: No growth; 0.5: weak growth; 1: moderate growth; 2: good growth; key to Color: —: no color; details: 80 mg in 400 ml Columbia; 24 h 37° C.
Method: as §2, §3, §4

[14] = system: Listeria monocytogenes NCTC 11 994; experiment: Peptidase detection on Columbia medium (Example 2); parameters: key to Growth: NG: No growth; 0.5: weak growth; 1: moderate growth; 2: good growth; key to Fluo. / Color / Color post-acid.: —: no color; details: 80 mg in 400 ml Columbia; 24 h 37° C.
Method: as §2, §3, §4

[15] = system: Yersinia enterocolitica NCTC 11 176; experiment: Peptidase detection on Columbia medium (Example 2); parameters: key to Growth: NG: No growth; 0.5: weak growth; 1: moderate growth; 2: good growth; key to Color: —: no color; details: 80 mg in 400 ml Columbia; 24 h 37° C.
[16] = system: Escherichia coli NCTC 10 418; experiment: Peptidase detection on Columbia medium (Example 2); parameters: key to Growth: NG: No growth; 0.5: weak growth; 1: moderate growth; 2: good growth; details: 80 mg in 400 ml Columbia; 24 h 37° C.
Method: as §2, §3, §4

[17] = system: Enterobacter cloacae NCTC 11 936; experiment: Peptidase detection on Columbia medium (Example 2); parameters: key to Growth: NG: No growth; 0.5: weak growth; 1: moderate growth; 2: good growth; details: 80 mg in 400 ml Columbia; 24 h 37° C.
Method: as §2, §3, §4

[18] = system: Bacillus subtilis 0204038; experiment: Peptidase detection on Columbia medium (Example 4); details: 75 mg/l, 48 h 37° C.
Source text: (§1) After homogenization, the media were distributed into 120-mm-squared dishes. A medium serving as a growth control (Columbia) and denoted C was also poured.

[19] = system: Staphylococcus epidermidis 0203050; experiment: Peptidase detection on Columbia medium (Example 4); details: 75 mg/l, 48 h 37° C.
Source text: as §1

[20] = system: Morganella morganii 9207053; experiment: Peptidase detection on Columbia medium (Example 4); details: 75 mg/l, 48 h 37° C.
Source text: as §1

Escherichia coli 0002005 = experiment: Peptidase detection on Columbia medium (Example 4); details: 75 mg/l, 48 h 37° C.
Source text: as §1

[21] = system: Serratia marcescens 7303004; experiment: Peptidase detection on Columbia medium (Example 4); details: 75 mg/l, 48 h 37° C.
Source text: as §1

[22] = system: Streptococcus pyogenes 9806380; experiment: Peptidase detection on Columbia medium (Example 4); details: 75 mg/l, 48 h 37° C.
Source text: as §1

[23] = system: Enterobacter cloacae 0604040; experiment: Peptidase detection on Columbia medium (Example 4); details: 75 mg/l, 48 h 37° C.
Source text: as §1

[24] = system: Pseudomonas aeruginosa 0001001; experiment: Peptidase detection on Columbia medium (Example 4); details: 75 mg/l, 48 h 37° C.
Source text: as §1

[25] = system: Citrobacter freundii 0006197; experiment: Peptidase detection on Columbia medium (Example 4); details: 75 mg/l, 48 h 37° C.
Source text: as §1

Candida albicans 0801025 = experiment: Peptidase detection on Columbia medium (Example 4); details: 75 mg/l, 48 h 37° C.
Source text: as §1

[26] = system: Yersinia enterocolitica 7605019; experiment: Peptidase detection on Columbia medium (Example 4); details: 75 mg/l, 48 h 37° C.
Source text: as §1

[27] = system: Salmonella ser typhimurium 0801029; experiment: Peptidase detection on Columbia medium (Example 4); details: 75 mg/l, 48 h 37° C.
Source text: as §1

MRSA 0303033 = experiment: Peptidase detection on Columbia medium (Example 4); details: 75 mg/l, 48 h 37° C.
Source text: as §1

[28] = system: Staphylococcus aureus 7811049; experiment: Peptidase detection on Columbia medium (Example 4); details: 75 mg/l, 48 h 37° C.
Source text: as §1

[29] = system: Klebsiella pneumoniae 0008009; experiment: Peptidase detection on Columbia medium (Example 4); details: 75 mg/l, 48 h 37° C.
Source text: as §1

[30] = system: Providencia rettgeri 0706064; experiment: Peptidase detection on Columbia medium (Example 4); details: 75 mg/l, 48 h 37° C.
Source text: as §1

[31] = system: Listeria monocytogenes 8812049; experiment: Peptidase detection on Columbia medium (Example 4); details: 75 mg/l, 48 h 37° C.
Source text: as §1

Candida glabrata 0408083 = experiment: Peptidase detection on Columbia medium (Example 4); details: 75 mg/l, 48 h 37° C.
Source text: as §1

[32] = system: Enterococcus faecalis 0008192; experiment: Peptidase detection on Columbia medium (Example 4); details: 75 mg/l, 48 h 37° C.
Source text: as §1

[33] = system: Enterococcus faecium 0610021; experiment: Peptidase detection on Columbia medium (Example 4); details: 75 mg/l, 48 h 37° C.
Source text: as §1

[34] = system: Burkholderia cepacia 7507032; experiment: Peptidase detection on Columbia medium (Example 4); details: 75 mg/l, 48 h 37° C.
Source text: as §1

[35] = system: Acinetobacter baumannii 0604029; experiment: Peptidase detection on Columbia medium (Example 4); details: 75 mg/l, 48 h 37° C.
Source text: as §1

C[n+]1ccc(C=Cc2ccc(NC(=O)[C@@H](N)CC(N)=O)cc2)c2ccccc21.O=C(O)C(F)(F)F.O=C([O-])C(F)(F)F [Asn-ASQM^+, L-asparaginyl-4-(4′-amidostyryl)-N-methylquinolinium-bis-TFA] was tested, and the Color [1] was “—”, the Growth [1] was 2 and the Color [2] was “—”. The Growth [2] was 2, the Color [3] was “Orange” and the Growth [3] was 2. For the same compound, the Color [4] was “—”, the Growth [4] was 2 and the Color [5] was “Orange”. For the same compound, the Growth [5] was 2, the Color [6] was “Pale orange” and the Growth [6] was 2. The Color [7] was “—”, the Color [8] was “—” and the Color [9] was “—”. The Growth [9] was 2, the Color [10] was “Pale orange” and the Growth [10] was 2. The Color [11] was “—”, the Growth [11] was 0.5 and the Color [12] was “—”. The Growth [12] was 0.5, the Color [13] was “—” and the Growth [13] was 2. The Color [14] was “—”, the Growth [14] was 2 and the Color [15] was “—”. The Growth [15] was 2, the Color [16] was “Pale orange” and the Growth [16] was 2. The Color [17] was “Pale orange” and the Growth [17] was 2.

For C[C@H](N)C(=O)N[C@@H](C)C(=O)Nc1ccc(C=Cc2cc[n+](C)c3ccccc23)cc1.Cl.[Cl-] [L-alanyl-L-alanyl-4-(4′-amidostyryl)-N-methylquinolinium (dichloride)], the Color [18] was “−”, the Coloration strength [18] was “−” and the Growth ([18]; control C: ++) was “++”. For the same compound, the Color [19] was “−”, the Coloration strength [19] was “−” and the Growth ([19]; control C: ++) was “++”. For the same compound, the Color [20] was “−”, the Coloration strength [20] was “−” and the Growth ([20]; control C: ++) was “++”. For the same compound, the Color (Escherichia coli 0002005) was “−”, the Coloration strength (Escherichia coli 0002005) was “−” and the Growth (Escherichia coli 0002005; control C: ++) was “++”. For the same compound, the Color [21] was “orange”, the Coloration strength [21] was “+” and the Growth ([21]; control C: ++) was “++”. The Color [22] was “orange”, the Coloration strength [22] was “+” and the Growth ([22]; control C: ++) was “++”. The Color [23] was “orange”, the Coloration strength [23] was “+” and the Growth ([23]; control C: ++) was “++”. The Color [24] was “−”, the Coloration strength [24] was “−” and the Growth ([24]; control C: ++) was “++”. The Color [25] was “−”, the Coloration strength [25] was “−” and the Growth ([25]; control C: ++) was “++”. The Coloration strength (Candida albicans 0801025) was “−”, the Growth (Candida albicans 0801025; control C: ++) was “+” and the Color [26] was “−”. For the same compound, the Coloration strength [26] was “−”, the Growth ([26]; control C: ++) was “++” and the Color [27] was “−”. For the same compound, the Coloration strength [27] was “−”, the Growth ([27]; control C: ++) was “++” and the Color (MRSA 0303033) was “−”. For the same compound, the Coloration strength (MRSA 0303033) was “−”, the Growth (MRSA 0303033; control C: ++) was “++” and the Color [28] was “−”. The Coloration strength [28] was “−”, the Growth ([28]; control C: ++) was “++” and the Color [29] was “orange”. For the same compound, the Coloration strength [29] was “+”, the Growth ([29]; control C: ++) was “++” and the Color [30] was “−”. The Coloration strength [30] was “−”, the Growth ([30]; control C: ++) was “++” and the Color [31] was “orange”. The Coloration strength [31] was “+”, the Growth ([31]; control C: ++) was “++” and the Coloration strength (Candida glabrata 0408083) was “−”. The Growth (Candida glabrata 0408083; control C: +) was “−”, the Color [32] was “−” and the Coloration strength [32] was “−”. For the same compound, the Growth ([32]; control C: ++) was “++”, the Color [33] was “−” and the Coloration strength [33] was “−”. The Growth ([33]; control C: ++) was “++”, the Color [34] was “−” and the Coloration strength [34] was “−”. For the same compound, the Growth ([34]; control C: ++) was “++”, the Color [35] was “orange” and the Coloration strength [35] was “+”. The Growth ([35]; control C: ++) was “++”.
